Test results from patent publication US10028966B2 (Avalyn Pharma Inc., priority 2014, dated 2018).
Converted amounts (≈) assume the structure as drawn. Where two headings read alike, the source gives them in different places. Marks after values point to notes of the source that are not given here.

Assays:
[1] = Pharmacokinetics and tissue distribution (lung, plasma, heart, kidney) of co-solvent formulations, intratracheal bolus aerosol; type: in vivo, Sprague-Dawley rats; settings: for concentration at 0.167 hr / concentration at 0.333 hr / concentration at 0.667 hr / concentration at 0 h / concentration at 4 min / concentration at 2.5 h / concentration at 0.167 h / concentration at 0.333 h / concentration at 0.667 h / concentration at 1 h: Sprague-Dawley, rat, 4 mg/kg, Pirfenidone, Mean, about 4 mg/kg IT aerosol; for concentration at 0.167 hr / concentration at 0.333 hr / concentration at 0.667 hr: other: intratracheal bolus aerosol (nebulizing catheter); for concentration at 0 h / concentration at 4 min / concentration at 2.5 h / concentration at 0.167 h / concentration at 0.333 h / concentration at 0.667 h / concentration at 1 h: other: intratracheal bolus aerosol; for concentration at 4 min: 0.0667 hr
Method: Selected formulations were prepared for pharmacokinetic analysis following aerosol delivery to rat lung. […] Formulations prepared for this study are outlined in Table 9. […] The sample was agitated until completely dissolved. […] Filtered samples were analyzed by HPLC.

[2] = tested on: bleomycin model of pulmonary fibrosis; assay: Bleomycin model of pulmonary fibrosis (hydroxyproline, fibrosis score); type: in vivo, Wistar rats; settings: for Right lung Average Hydroxyproline: days 7-28; for Average Fibrosis Score, difference from bleomycin control / Right lung Average Hydroxyproline, difference from bleomycin control: sham-subtracted
Method: To compare anti-fibrotic efficacy between extended-duration intratracheal, direct-lung aerosol administration and oral gavage, the bleomycin model of pulmonary fibrosis was performed. Doses for this study were selected based upon pharmacokinetic parameters obtained in Table 22 (from Example 8). Briefly, Wistar rats (175-225 grams) were administered bleomycin by the intratracheal route using a Penn Century MicroSprayer® catheter. On the seventh day following bleomycin exposure, animals initiated treatment with either saline or pirfenidone. Animals were dosed once a day on days 7 through 28, and euthanized on day 29. Pirfenidone was administered either intratracheally using Penn Century MicroSprayer catheter or by oral gavage. Sham and bleomycin control groups received either no treatment or intratracheal saline by Penn Century MicroSprayer catheter. While dosing more frequently (or less frequently) may improve the observed effects, anesthesia required for intratracheal administration reduced animal weight gain (reduced food intake) and, thus limited dosing to once a day for this study. Because anesthesia reduced weight gain, all study animals (intratracheal, oral and control) received once-a-day isoflurane using the same technique and duration. Twelve animals were enrolled into each dosing group. […] Oral gavage was administered in a single 300 mcL volume. Due to technical restrictions, instead of the mg/kg dose being equally split between six 50 mcL administrations over 2 minutes, intratracheal administration was performed with three equal 50 mcL volumes administered every 40 seconds over the same period. For dose selection, data from Table 22 was extrapolated. On day 29, animals were euthanized. Right lungs were extracted and measured for hydroxyproline content, while left lungs were subjected to histology. Histological sections were stained with picrosirius red and scored for lung tissue fibrosis. Twenty random photographs of each stained lung tissue section were taken, blinded and scored by an independent review panel. Observations were pooled for analysis.

[3] = cited from earlier work; for AUC over 0-18 hours / Cmax: human, plasma (Rubino et al., 2009)
2D6 = biological target: T1, 2D6 (Homo sapiens, UniProt P10635); settings: hepatic microsomes; cited from earlier work
T1 construct: In vitro metabolism studies with hepatic microsomes; from tissue; host or cells: hepatic microsomes
T1 sequence (P10635 whole entry): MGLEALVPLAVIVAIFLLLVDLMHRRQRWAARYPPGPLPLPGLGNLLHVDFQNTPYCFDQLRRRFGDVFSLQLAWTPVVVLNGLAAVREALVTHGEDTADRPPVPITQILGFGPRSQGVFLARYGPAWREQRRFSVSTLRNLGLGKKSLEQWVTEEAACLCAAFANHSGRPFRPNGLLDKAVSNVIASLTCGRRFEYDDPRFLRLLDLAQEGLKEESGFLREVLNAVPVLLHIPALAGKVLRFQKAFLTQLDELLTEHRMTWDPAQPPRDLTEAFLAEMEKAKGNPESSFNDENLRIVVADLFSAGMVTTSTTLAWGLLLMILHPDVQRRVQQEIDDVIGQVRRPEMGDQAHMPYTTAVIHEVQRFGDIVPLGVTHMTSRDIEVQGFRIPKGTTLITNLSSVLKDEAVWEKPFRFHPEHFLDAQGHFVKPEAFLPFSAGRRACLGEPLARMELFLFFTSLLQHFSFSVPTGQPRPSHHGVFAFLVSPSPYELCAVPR

[4] = Intravenous push of pirfenidone, plasma and lung levels; type: in vivo; settings: mouse
[5] = Buffer and pH effects study: pirfenidone saturation solubility; type: physicochemical; settings: thermodynamic from solid
Method: The sample was agitated at ambient temperature overnight. The sample was visually inspected, appearance recorded, centrifuged to sediment any un-dissolved material, and the supernatant withdrawn via syringe through a 0.22 μm PVDF filter. […] The remaining filtered sample was split into three equal volumes in glass vials and placed at 25° C./60 RH, 40° C./75 RH and refrigeration. Samples were wrapped in aluminum foil to reduce light exposure. After the first night of incubation, samples were briefly visually inspected for any signs of discoloration or precipitate formation.

CYP1A2 = biological target: T2, CYP1A2 (Homo sapiens, UniProt P05177); settings: hepatic microsomes; cited from earlier work
T2 construct: In vitro metabolism studies with hepatic microsomes; from tissue; host or cells: hepatic microsomes
T2 sequence (P05177 whole entry): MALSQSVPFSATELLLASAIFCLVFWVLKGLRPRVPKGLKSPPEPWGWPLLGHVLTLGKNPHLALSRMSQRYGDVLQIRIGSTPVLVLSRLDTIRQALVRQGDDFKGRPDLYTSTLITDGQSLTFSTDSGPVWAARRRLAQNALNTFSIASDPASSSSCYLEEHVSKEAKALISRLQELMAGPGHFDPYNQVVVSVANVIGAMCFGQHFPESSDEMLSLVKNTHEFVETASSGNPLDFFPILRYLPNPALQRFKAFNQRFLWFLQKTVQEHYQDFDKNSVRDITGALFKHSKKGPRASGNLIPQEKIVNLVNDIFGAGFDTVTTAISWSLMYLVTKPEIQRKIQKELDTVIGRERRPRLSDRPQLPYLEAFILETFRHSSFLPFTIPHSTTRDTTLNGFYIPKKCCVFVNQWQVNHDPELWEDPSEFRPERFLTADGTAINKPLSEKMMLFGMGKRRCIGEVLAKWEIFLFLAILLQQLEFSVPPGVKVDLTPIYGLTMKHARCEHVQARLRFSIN

[6] = Bleomycin + IT pirfenidone 0.9 mg/kg
[7] = Bleomycin + IT pirfenidone 3.0 mg/kg
[8] = Bleomycin + IT pirfenidone 6.4 mg/kg
[9] = Bleomycin + PO pirfenidone 30 mg/kg
[10] = Bleomycin + PO pirfenidone 100 mg/kg

SMILES: Cc1ccc(=O)n(-c2ccccc2)c1 [pirfenidone, 5-methyl-1-phenyl-2-(1H)-pyridone]
- concentration at 0.167 hr ([1]; heart, heart tissue, Group 1): 4910 ng/g
- concentration at 0.333 hr ([1]; heart, heart tissue, Group 1): 3850 ng/g
- concentration at 0.667 hr ([1]; heart, heart tissue, Group 1): 1800 ng/g
- concentration at 0.167 hr ([1]; heart, heart tissue, Group 2): 4100 ng/g
- concentration at 0.333 hr ([1]; heart, heart tissue, Group 2): 3130 ng/g
- concentration at 0.667 hr ([1]; heart, heart tissue, Group 2): 2190 ng/g
- concentration at 0.167 hr ([1]; heart, heart tissue, Group 6): 4950 ng/g
- concentration at 0.333 hr ([1]; heart, heart tissue, Group 6): 3430 ng/g
- concentration at 0.667 hr ([1]; heart, heart tissue, Group 6): 2220 ng/g
- concentration at 0 h ([1]; heart, heart tissue, Group 1): 20 ng/g
- concentration at 4 min ([1]; heart, heart tissue, Group 1): 7900 ng/g
- concentration at 2.5 h ([1]; heart, heart tissue, Group 1): 90 ng/g
- concentration at 0 h ([1]; heart, heart tissue, Group 2): 190 ng/g
- concentration at 4 min ([1]; heart, heart tissue, Group 2): 5920 ng/g
- concentration at 2.5 h ([1]; heart, heart tissue, Group 2): 120 ng/g
- concentration at 0 h ([1]; heart, heart tissue, Group 6): 80 ng/g
- concentration at 4 min ([1]; heart, heart tissue, Group 6): 6320 ng/g
- concentration at 2.5 h ([1]; heart, heart tissue, Group 6): 120 ng/g
- concentration at 0 h ([1]; kidney, kidney tissue, Group 1): 10 ng/g
- concentration at 4 min ([1]; kidney, kidney tissue, Group 1): 9880 ng/g
- concentration at 0.167 h ([1]; kidney, kidney tissue, Group 1): 6620 ng/g
- concentration at 0.333 h ([1]; kidney, kidney tissue, Group 1): 4870 ng/g
- concentration at 0.667 h ([1]; kidney, kidney tissue, Group 1): 2860 ng/g
- concentration at 0 h ([1]; kidney, kidney tissue, Group 2): 470 ng/g
- concentration at 4 min ([1]; kidney, kidney tissue, Group 2): 10800 ng/g
- concentration at 0.167 h ([1]; kidney, kidney tissue, Group 2): 8300 ng/g
- concentration at 0.333 h ([1]; kidney, kidney tissue, Group 2): 7440 ng/g
- concentration at 0.667 h ([1]; kidney, kidney tissue, Group 2): 3310 ng/g
- concentration at 1 h ([1]; kidney, kidney tissue, Group 2): 1750 ng/g
- concentration at 2.5 h ([1]; kidney, kidney tissue, Group 2): 180 ng/g
- concentration at 0 h ([1]; kidney, kidney tissue, Group 6): 270 ng/g
- concentration at 4 min ([1]; kidney, kidney tissue, Group 6): 12900 ng/g
- concentration at 0.167 h ([1]; kidney, kidney tissue, Group 6): 6650 ng/g
- concentration at 0.333 h ([1]; kidney, kidney tissue, Group 6): 4870 ng/g
- concentration at 0.667 h ([1]; kidney, kidney tissue, Group 6): 3530 ng/g
- concentration at 1 h ([1]; kidney, kidney tissue, Group 6): 1710 ng/g
- adverse events ([1]; about 4 mg/kg intratracheal bolus aerosol, co-solvent formulations, rats): No adverse events were noted
- possible lung tissue Cmax ([2]; 0.9 mg/kg dose to 250 gram rat, lung about 1.5 grams, whole dose): ≤ 150 mcg/gram
- possible lung tissue Cmax ([2]; 0.9 mg/kg intratracheal dose divided into thirds): about 50 mcg/gram lung tissue
- anti-fibrotic efficacy ([2]; 3.0 mg/kg intratracheal, direct lung aerosol, once a day days 7-28): no observed pirfenidone efficacy
- Average Fibrosis Score, Picrosirius Red-stained left lung sections [2, 6]: 2.88*
- Lung Tissue AUC0-2 hrs [2, 6]: 2.6 µg·h/g
- Lung Tissue Cmax [2, 6]: 11.6 µg/g
- Right lung Average Hydroxyproline ([2]; Bleomycin + IT pirfenidone 0.9 mg/kg once a day): 2.88* mg/right lung
- Average Fibrosis Score, difference from bleomycin control [2, 6]: −0.53*, ****
- Right lung Average Hydroxyproline, difference from bleomycin control [2, 6]: −0.70*, **** mg/right lung
- Average Fibrosis Score, Picrosirius Red-stained left lung sections [2, 7]: 3.66
- Lung Tissue AUC0-2 hrs [2, 7]: 7.3 µg·h/g
- Lung Tissue Cmax [2, 7]: 33.5 µg/g
- Right lung Average Hydroxyproline ([2]; Bleomycin + IT pirfenidone 3.0 mg/kg once a day): 3.56 mg/right lung
- Average Fibrosis Score, difference from bleomycin control [2, 7]: 0.26***, ****
- Right lung Average Hydroxyproline, difference from bleomycin control [2, 7]: −0.02**, **** mg/right lung
- Average Fibrosis Score, Picrosirius Red-stained left lung sections [2, 8]: 3.47
- Lung Tissue AUC0-2 hrs [2, 8]: 15.5 µg·h/g
- Lung Tissue Cmax [2, 8]: 71.5 µg/g
- Right lung Average Hydroxyproline ([2]; Bleomycin + IT pirfenidone 6.4 mg/kg once a day): 3.50 mg/right lung
- Average Fibrosis Score, difference from bleomycin control [2, 8]: 0.07**, ****
- Right lung Average Hydroxyproline, difference from bleomycin control [2, 8]: −0.08***, **** mg/right lung
- Average Fibrosis Score, Picrosirius Red-stained left lung sections [2, 9]: 3.11
- Lung Tissue AUC0-2 hrs [2, 9]: 18.2 µg·h/g
- Lung Tissue Cmax [2, 9]: 11.8 µg/g
- Right lung Average Hydroxyproline ([2]; Bleomycin + PO pirfenidone 30 mg/kg once a day): 3.65 mg/right lung
- Average Fibrosis Score, difference from bleomycin control [2, 9]: 0.68*, **
- Right lung Average Hydroxyproline, difference from bleomycin control [2, 9]: 0.43*, ** mg/right lung
- Average Fibrosis Score, Picrosirius Red-stained left lung sections [2, 10]: 3.61
- Lung Tissue AUC0-2 hrs [2, 10]: 34.4 µg·h/g
- Lung Tissue Cmax [2, 10]: 33.6 µg/g
- Right lung Average Hydroxyproline ([2]; Bleomycin + PO pirfenidone 100 mg/kg once a day): 3.73 mg/right lung
- Average Fibrosis Score, difference from bleomycin control [2, 10]: 1.18***
- Right lung Average Hydroxyproline, difference from bleomycin control [2, 10]: 0.51*** mg/right lung
- anti-fibrotic efficacy (fibrosis, hydroxyproline), direct lung versus oral ([2]; intratracheal aerosol versus oral gavage): more efficacious
- T1/2 beta ([3]; aerosol 110 mg RDD, lung tissue, from plasma T1/2, Rubino et al., 2009 fasted-state): 2.5 h
- T1/2 beta ([3]; aerosol 110 mg RDD, plasma, Rubino et al., 2009 fasted-state): 2.5 h
- T1/2 beta ([3]; aerosol 154 mg RDD, lung tissue, from plasma T1/2, Rubino et al., 2009 fasted-state): 2.5 h
- T1/2 beta ([3]; aerosol 154 mg RDD, plasma, Rubino et al., 2009 fasted-state): 2.5 h
- T1/2 beta ([3]; aerosol 185 mg RDD, lung tissue, from plasma T1/2, Rubino et al., 2009 fasted-state): 2.5 h
- T1/2 beta ([3]; aerosol 185 mg RDD, plasma, Rubino et al., 2009 fasted-state): 2.5 h
- AUC over 0-18 hours ([3]; oral 801 mg fasted-state): 67700 ng·h/mL
- Cmax ([3]; oral 801 mg fasted-state): 14.2 microgram/mL
- AUC over 0-18 hours ([3]; oral 801 mg fed-state): 58900 ng·h/mL
- Cmax ([3]; oral 801 mg fed-state): 7.9 microgram/mL
- T1/2 beta ([3]; oral 801 mg fasted-state, lung tissue, from plasma T1/2, Rubino et al., 2009): 2.5 h
- T1/2 beta ([3]; oral 801 mg fasted-state, plasma, Rubino et al., 2009): 2.5 h
- T1/2 beta ([3]; oral 801 mg fed-state, lung tissue, from plasma T1/2, Rubino et al., 2009): 2.4 h
- T1/2 beta ([3]; oral 801 mg fed-state, plasma, Rubino et al., 2009): 2.4 h
- contribution to pirfenidone metabolism (2D6): less than 13%
- Lung Cmax ([4]; 40 mg/kg intravenous dose): 30 mcg/gram wet tissue
- pirfenidone in the lung tissue after subtracting blood content ([4]; 40 mg/kg intravenous dose, blood assumed 40% of wet lung weight): about 8 mcg/g
- wet lung half-life, longer than the plasma half-life ([4]; intravenous push): about 45%
- Cmax ([4]; plasma, 40 mg/kg intravenous dose): ~55 µg/mL
- solubility ([5]; citrate buffer, pH 4, aqueous buffer, Citrate buffer 5 mM, pH 4, ambient temperature overnight): 18.4 mg/mL (≈ 99.3 mM)
- solubility ([5]; citrate buffer, pH 4, aqueous buffer, Citrate buffer 50 mM, pH 4, ambient temperature overnight): 18.1 mg/mL (≈ 97.7 mM)
- solubility ([5]; citrate buffer, pH 6, aqueous buffer, Citrate buffer 5 mM, pH 6, ambient temperature overnight): 18.4 mg/mL (≈ 99.3 mM)
- solubility ([5]; citrate buffer, pH 6, aqueous buffer, Citrate buffer 50 mM, pH 6, ambient temperature overnight): 16.4 mg/mL (≈ 88.5 mM)
- solubility ([5]; phosphate buffer, pH 6, aqueous buffer, Phosphate buffer 5 mM, pH 6, ambient temperature overnight): 18.3 mg/mL (≈ 98.8 mM)
- solubility ([5]; phosphate buffer, pH 6, aqueous buffer, Phosphate buffer 50 mM, pH 6, ambient temperature overnight): 17.2 mg/mL (≈ 92.9 mM)
- solubility ([5]; phosphate buffer, pH 7.5, aqueous buffer, Phosphate buffer 5 mM, pH 7.5, ambient temperature overnight): 19 mg/mL (≈ 103 mM)
- solubility ([5]; phosphate buffer, pH 7.5, aqueous buffer, Phosphate buffer 50 mM, pH 7.5, ambient temperature overnight): 16.3 mg/mL (≈ 88 mM)
- solubility ([5]; water, pH 7.9, water, buffer 0 mM, pH 7.9, ambient temperature overnight): 18.4 mg/mL (≈ 99.3 mM)
- pirfenidone metabolised via CYP1A2 (CYP1A2): approximately 48%
